Measurements taken from US12441768B2, “Compositions and methods for treating endometriosis” (EndoMet Biosciences, Inc., priority 2018, dated 2025).
Where a SMILES comes first, the peptide text is derived from it.

Legend:
[1] = % Viability non-Wnt responsive cells
β-catenin = molecular target: T1, β-catenin (Homo sapiens, UniProt P35222); experiment: KD50 measurement using competitive fluorescence polarization (FP) with labelled TCF4; format: binding; details: fluorescence polarization, β-catenin; for Kd: read-out: β-Cat FP KD
T1 sequence (P35222 1-781): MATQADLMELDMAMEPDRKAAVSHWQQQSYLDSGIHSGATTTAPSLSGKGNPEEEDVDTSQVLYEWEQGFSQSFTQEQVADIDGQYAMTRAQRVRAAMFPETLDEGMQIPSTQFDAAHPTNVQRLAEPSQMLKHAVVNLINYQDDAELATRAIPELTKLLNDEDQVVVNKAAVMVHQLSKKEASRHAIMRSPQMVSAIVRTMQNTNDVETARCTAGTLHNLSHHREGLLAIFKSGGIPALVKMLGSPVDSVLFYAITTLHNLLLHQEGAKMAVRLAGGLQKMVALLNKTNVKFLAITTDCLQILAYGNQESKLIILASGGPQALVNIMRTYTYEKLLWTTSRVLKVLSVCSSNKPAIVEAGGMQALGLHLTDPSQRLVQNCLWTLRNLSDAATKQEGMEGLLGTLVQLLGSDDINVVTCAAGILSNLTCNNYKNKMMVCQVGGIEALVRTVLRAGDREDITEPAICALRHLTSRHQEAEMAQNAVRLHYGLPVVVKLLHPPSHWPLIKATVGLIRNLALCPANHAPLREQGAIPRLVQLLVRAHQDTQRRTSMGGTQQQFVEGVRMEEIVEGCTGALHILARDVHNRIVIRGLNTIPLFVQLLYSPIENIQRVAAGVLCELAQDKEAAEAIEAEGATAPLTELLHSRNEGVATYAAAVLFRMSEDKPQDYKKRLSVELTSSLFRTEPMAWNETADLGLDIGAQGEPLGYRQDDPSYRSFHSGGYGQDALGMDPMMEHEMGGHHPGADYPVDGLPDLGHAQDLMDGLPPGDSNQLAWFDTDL
How it was run: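 Competitive FP in which unlabelled inhibitor (10 nM to 30 uM dilution series) displaces 5 nM labelled TCF4 from 100 nM β-catenin, room temperature. Read-out ex 470 nm, em 520 nm; experiment repeated three times.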

[2] = molecular target: Wnt-responsive promoter (TCF/LEF); experiment: Wnt-dependent luciferase reporter assay; format: cell-based, murine
How it was run: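 EC50 (uM) derived from inhibition of luminescence in Wnt3a-stimulated murine 3T3 cells expressing luciferase under a TCF/LEF promoter, with peptides added across a concentration range and vehicle as control.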

| β-Cat FP Hill slope (β-catenin) | Kd (β-catenin) [µM] | EC50 [2] [µM] | Compound | viability [1] [%] |
| --- | --- | --- | --- | --- |
| 1.35 | 0.4 to 1 | < 7.5 | CC[C@H](C)[C@H](NC(=O)[C@H](CC(C)C)NC(=O)[C@H](CC1CCCCC1)NC(=O)[C@H](Cc1c[nH]c2ccccc12)NC(=O)[C@H](CCSC)NC(C)=O)C(=O)N[C@@H](CO)C(=O)N[C@@H](Cc1ccccc1)C(=O)N[C@@H](Cc1c[nH]c2ccccc12)C(=O)NCC(=O)O [compound 216] (HELM PEPTIDE1{[ac].M.W.[Cha].L.I.S.F.W.G}$$$$V2.0) | 100 |
| – | > 30 | > 30 | CC[C@H](C)[C@H](NC(=O)[C@H](CC(C)C)NC(=O)[C@H](Cc1ccccc1)NC(=O)[C@H](Cc1c[nH]c2ccccc12)NC(=O)[C@H](CCSC)NC(=O)[C@H](CCCNC(=N)N)NC(=O)[C@H](CO)NC(=O)[C@@H](N)Cc1c[nH]c2ccccc12)C(=O)N[C@@H](CO)C(=O)N[C@@H](Cc1ccccc1)C(=O)N[C@@H](Cc1c[nH]c2ccccc12)C(N)=O [compound 79] (H-WSRMWFLISFW-NH2) | 98.8 |
| – | > 30 | > 30 | CC[C@H](C)[C@H](NC(=O)[C@H](CC(C)C)NC(=O)[C@H](Cc1ccccc1)NC(=O)[C@H](Cc1c[nH]c2ccccc12)NC(=O)[C@H](CCSC)NC(=O)[C@H](CCCNC(=N)N)NC(=O)[C@H](CO)NC(=O)[C@@H](N)CCC(=O)O)C(=O)N[C@@H](CO)C(=O)N[C@@H](Cc1ccccc1)C(=O)N[C@@H](Cc1c[nH]c2ccccc12)C(N)=O [compound 86] (H-ESRMWFLISFW-NH2) | 103 |
| 0.9 | 0.4 to 1 | < 7.5 | CC[C@H](C)[C@H](NC(=O)[C@H](CC(C)C)NC(=O)[C@H](Cc1ccccc1)NC(=O)[C@H](Cc1c[nH]c2ccccc12)NC(=O)[C@@H](N)CCSC)C(=O)N[C@@H](CO)C(=O)N[C@@H](Cc1ccccc1)C(=O)N[C@@H](Cc1c[nH]c2ccccc12)C(=O)N(C)[C@@H](C)C(=O)NCC(=O)O [compound 45] (HELM PEPTIDE1{M.W.F.L.I.S.F.W.[meA].G}$$$$V2.0) | 101 |
| 0.7 | 1 to 10 | < 7.5 | CC[C@H](C)[C@@H]1NC(=O)[C@H](CC(C)C)NC(=O)[C@H](Cc2ccccc2)NC(=O)[C@H](Cc2c[nH]c3ccccc23)NC(=O)[C@@H](N)CCCCNC(=O)CC[C@@H](C(=O)O)NC(=O)[C@H](Cc2c[nH]c3ccccc23)NC(=O)[C@H](C)NC(=O)[C@H](CO)NC1=O [compound 183] (HELM PEPTIDE1{K.W.F.L.I.S.A.W.E}$PEPTIDE1,PEPTIDE1,1:R3-9:R3$$$V2.0) | 97 |
| 0.7 | 1 to 10 | < 7.5 | CC[C@H](C)[C@@H]1NC(=O)[C@H](CC(C)C)NC(=O)[C@H](Cc2ccccc2)NC(=O)[C@H](Cc2c[nH]c3ccccc23)NC(=O)[C@@H](N)CCCCNC(=O)C[C@@H](C(=O)O)NC(=O)[C@H](Cc2c[nH]c3ccccc23)NC(=O)[C@H](C)NC(=O)[C@H](CS)NC1=O [compound 168] (HELM PEPTIDE1{K.W.F.L.I.C.A.W.D}$PEPTIDE1,PEPTIDE1,1:R3-9:R3$$$V2.0) | 99.1 |
| 0.7 | 1 to 10 | 7.5 to 15 | CC[C@H](C)[C@H](NC(=O)[C@H](CC(C)C)NC(=O)[C@H](Cc1ccccc1)NC(=O)[C@H](Cc1c[nH]c2ccccc12)NC(=O)[C@@H](N)CCSC)C(=O)N[C@@H](CO)C(=O)N[C@@H](Cc1ccccc1)C(=O)N[C@@H](Cc1c[nH]c2ccccc12)C(N)=O [compound 107] (H-MWFLISFW-NH2) | 100 |
| – | > 30 | < 7.5 | CC[C@H](C)[C@@H]1NC(=O)[C@H](CC(C)C)NC(=O)[C@H](Cc2ccccc2)NC(=O)[C@H](Cc2c[nH]c3ccccc23)NC(=O)[C@@H](N)CC(=O)NCCCC[C@@H](C(=O)NCC(=O)O)NC(=O)[C@H](Cc2c[nH]c3ccccc23)NC(=O)[C@H](C)NC(=O)[C@H](CS)NC1=O [compound 178] (HELM PEPTIDE1{D.W.F.L.I.C.A.W.K.G}$PEPTIDE1,PEPTIDE1,1:R3-9:R3$$$V2.0) | 91.8 |
| 0.72 | 1 to 10 | 22.5 to 30 | CC[C@H](C)[C@H](NC(=O)[C@H](Cc1c[nH]c2ccccc12)NC(=O)[C@@H](N)CCSC)C(=O)NC(C)(CC(C)C)C(=O)N[C@H](C(=O)N[C@@H](CS)C(=O)N[C@@H](Cc1ccccc1)C(=O)N[C@@H](Cc1c[nH]c2ccccc12)C(=O)NCC(=O)O)[C@@H](C)CC (some centres unmarked) [compound 130] (HELM PEPTIDE1{M.W.I.[CC(C)CC(C)(N[*:1])C(=O)[*:2]].I.C.F.W.G}$$$$V2.0) | 98.3 |
| 1.07 | 0.4 to 1 | > 30 | CC[C@H](C)[C@@H]1NC(=O)[C@H](CC(C)C)NC(=O)[C@H](Cc2ccccc2)NC(=O)[C@H](Cc2c[nH]c3ccccc23)NC(=O)[C@H](CCSC)NC(=O)[C@@H](NC(C)=O)CCCCNC(=O)CC[C@@H](C(=O)O)NC(=O)[C@H](Cc2c[nH]c3ccccc23)NC(=O)[C@H](Cc2ccccc2)NC(=O)[C@H](CS)NC1=O [compound 186] (HELM PEPTIDE1{[ac].K.M.W.F.L.I.C.F.W.E}$PEPTIDE1,PEPTIDE1,2:R3-11:R3$$$V2.0) | 96.4 |
| 0.81 | 0.4 to 1 | 15 to 22.5 | CC[C@H](C)[C@H](NC(=O)[C@H](Cc1c[nH]c2ccccc12)NC(=O)[C@@H](N)CCSC)C(=O)N[C@@H](CC(C)C)C(=O)N[C@H](C(=O)N[C@@H](C(=O)N[C@@H](Cc1ccccc1)C(=O)N[C@@H](Cc1c[nH]c2ccccc12)C(=O)NCC(=O)O)[C@H](C)O)[C@@H](C)CC [compound 137] (HELM PEPTIDE1{M.W.I.L.I.[dT].F.W.G}$$$$V2.0) | 93.9 |
| 0.7 | 0.4 to 1 | < 7.5 | CC[C@H](C)[C@@H]1NC(=O)[C@H](CC(C)C)NC(=O)[C@H](Cc2ccccc2)NC(=O)[C@H](Cc2c[nH]c3ccccc23)NC(=O)[C@@H](N)CCCCNC(=O)CNC(=O)C[C@@H](C(=O)O)NC(=O)[C@H](Cc2c[nH]c3ccccc23)NC(=O)[C@H](C)NC(=O)[C@H](CS)NC1=O [compound 207] (HELM PEPTIDE1{K.W.F.L.I.C.A.W.[O=C(O)[C@H](CC(=O)[*:2])N[*:1]].G}$PEPTIDE1,PEPTIDE1,1:R3-10:R2$$$V2.0) | 107 |
| – | > 30 | < 7.5 | CC[C@H](C)[C@H](NC(=O)[C@H](Cc1c[nH]c2ccccc12)NC(=O)[C@@H](N)CCSC)C(=O)N[C@@H](CC(C)C)C(=O)N[C@H](C(=O)N[C@H](C(=O)N[C@@H](Cc1ccccc1)C(=O)N[C@@H](Cc1c[nH]c2ccccc12)C(=O)NCC(=O)O)[C@@H](C)O)[C@@H](C)CC [compound 150] (H-MWILITFWG-OH) | 99.8 |
| 3 | 0.4 to 1 | < 7.5 | CC[C@H](C)[C@H](NC(=O)[C@H](CC(C)C)NC(=O)[C@H](Cc1ccccc1)NC(=O)[C@H](Cc1c[nH]c2ccccc12)NC(C)=O)C(=O)N[C@@H](CS)C(=O)N[C@@H](Cc1ccccc1)C(=O)N[C@@H](Cc1c[nH]c2ccccc12)C(=O)NCC(=O)O [compound 194] (Ac-WFLICFWG-OH) | 106 |
| – | > 30 | > 30 | CC[C@H](C)[C@H](NC(=O)[C@H](CC(C)C)NC(=O)[C@H](Cc1ccccc1)NC(=O)[C@H](Cc1c[nH]c2ccccc12)NC(=O)[C@H](Cc1ccccc1)NC(=O)[C@H](CCCNC(=N)N)NC(=O)[C@H](CO)NC(=O)[C@@H](N)CCSC)C(=O)N[C@@H](CO)C(=O)N[C@@H](Cc1ccccc1)C(=O)N[C@@H](Cc1c[nH]c2ccccc12)C(N)=O [compound 77] (H-MSRFWFLISFW-NH2) | 107 |
| – | > 30 | < 7.5 | CC[C@H](C)[C@H](NC(=O)[C@H](CC(C)C)NC(=O)[C@H](Cc1ccccc1)NC(=O)[C@H](Cc1c[nH]c2ccccc12)NC(=O)[C@H](CCSC)NC(=O)[C@H](CCCNC(=N)N)NC(=O)[C@H](CO)NC(=O)[C@@H](N)CCSC)C(=O)N[C@@H](CO)C(=O)N[C@@H](Cc1ccccc1)C(=O)N[C@@H](Cc1c[nH]c2ccccc12)C(=O)NCC(=O)O [compound 41] (H-MSRMWFLISFWG-OH) | 96.1 |
| 1 | 0.4 to 1 | 7.5 to 15 | CC[C@H](C)[C@H](NC(=O)[C@H](CC(C)C)NC(=O)[C@@H](NC(=O)[C@H](Cc1c[nH]c2ccccc12)NC(=O)[C@@H](N)Cc1c[nH]c2ccccc12)[C@@H](C)CC)C(=O)N[C@@H](CO)C(=O)N[C@@H](Cc1ccccc1)C(=O)N[C@@H](Cc1c[nH]c2ccccc12)C(=O)NCC(=O)O [compound 127] (H-WWILISFWG-OH) | 120 |
